From patent US20230146455A1, “TREATMENT OF INFLAMMATORY DISEASES WITH PEPTIDES AND PHARMACEUTICAL COMPOSITIONS” (Yuyu Pharma, Inc., priority 2020, published 2023)
Where “and” joins values, the source holds several entries; their conditions need not be identical. Identical values can stand only once. Where a SMILES comes first, the peptide text is derived from it. [ ]: non-standard residue; d: D form. Hyp = O=C(O)[C@@H]1C[C@@H](O)CN1

System: IL-1 beta/IL-1F2
Assay: Example 9 Luminex, LPS hPBMCs: IL-1 beta/IL-1F2
Assay type: cell-based, human
Method: Treatment Human PBMCs were pretreated with YY-101, YDE-011 and YDE-043 or reference compound; Xiidra® at various concentration (ranging from 1 nM to 100 uM) for 2 h before stimulation. An equal volume of 0.5% DMSO was used as a vehicle control. Then, the cells were treated with LPS at 5 ug/ml. The supernatants from treated cells were harvested at 24 h and placed in a 96 well for Luminex cytokine & chemokine profiling using a Luminex 200 multiplex assay (Luminex; R&D system, USA).
The main study arm with triplicate wells per group in a 24-well plate: • 1. Blank • 2. PBMC: 0.5% DMSO • 3. PBMC+LPS (5 ug/ml) • 4. PBMC+YY-101 100 uM • 5. PBMC+YY-101 10 uM • 6. PBMC+YY-101 1 uM • 7. PBMC+YY-101 0.1 uM • 8. PBMC+YY-101 0.01 uM • 9. PBMC+LPS (5 ug/ml)+Xiidra®100 uM • 10. PBMC+LPS (5 ug/ml)+Xiidra® 10 uM • 11. PBMC+LPS (5 ug/ml)+Xiidra® 1 uM • 12. PBMC+LPS (5 ug/ml)+Xiidra®0.1 uM • 13. PBMC+LPS (5 ug/ml)+Xiidra®0.01 uM • 14. PBMC+LPS (5 ug/ml)+Xiidra®0.001 uM • 15. PBMC+LPS (5 ug/ml)+YY-101 100 uM • 16. PBMC+LPS (5 ug/ml)+YY-101 10 uM • 17. PBMC+LPS (5 ug/ml)+YY-101 1 uM • 18. PBMC+LPS (5 ug/ml)+YY-101 0.1 uM • 19. PBMC+LPS (5 ug/ml)+YY-101 0.01 uM • 20. PBMC+LPS (5 ug/ml)+YY-101 0.001 uM • 21. PBMC+LPS (5 ug/ml)+YDE-011 100 uM • 22. PBMC+LPS (5 ug/ml)+YDE-011 10 uM • 23. PBMC+LPS (5 ug/ml)+YDE-011 1 uM • 24. PBMC+LPS (5 ug/ml)+YDE-011 0.1 uM • 25. PBMC+LPS (5 ug/ml)+YDE-011 0.01 uM • 26. PBMC+LPS (5 ug/ml)+YDE-011 0.001 uM • 27. PBMC+LPS (5 ug/ml)+YDE-043 100 uM • 28. PBMC+LPS (5 ug/ml)+YDE-043 10 uM • 29. PBMC+LPS (5 ug/ml)+YDE-043 1 uM • 30. PBMC+LPS (5 ug/ml)+YDE-043 0.1 uM • 31. PBMC+LPS (5 ug/ml)+YDE-043 0.01 uM • 32. PBMC+LPS (5 ug/ml)+YDE-043 0.001 uM
Multiplex assay was used to measure 30 cytokines and chemokines. The 1:2, 1:10 and 1:200 diluted cell supernatant and serial dilution of the standard were dispensed into a 96 well plate at 50 ul/well. Then, the pre-mixed cocktail of antibody-coated magnetic beads was dispensed at 50 ul/well and incubated at room temperature for 2 h in a horizontal orbital microplate shaker at 800±500 rpm. The beads were washed using a magnetic device to prevent loss. The biotin-antibody was dispensed in 50 ul of each well and incubated at room temperature for 1 h in a shaker at 800±500 rpm. After washing, streptavidin-PE was added at 50 ul/well and incubated at room temperature for 30 min in a shaker under the same conditions. Finally, after washing, wash buffer (100 ul/well) was added to the plate and incubated in a shaker for 2 min. The Luminex™ 200 setting were set according to the manufacturer's protocol. The data was calculated with a standard five-parameter logistic nonlinear regression analysis of the data (xPonent software 4.2, USA). The levels of cytokine/chemokine are normalized to the live cell counts (1×10^5 cells/mL) and presented as concentrations per mL (pg/mL or ng/mL).

[1] = PBMC + LPS(5 ug/ml) + test article 0.001 uM, Mean
[2] = PBMC + LPS(5 ug/ml) + test article 0.001 uM, single replicates
[3] = PBMC + LPS(5 ug/ml) + test article 0.01 uM, Mean
[4] = PBMC + LPS(5 ug/ml) + test article 0.01 uM, single replicates
[5] = PBMC + LPS(5 ug/ml) + test article 0.1 uM, Mean
[6] = PBMC + LPS(5 ug/ml) + test article 0.1 uM, single replicates
[7] = PBMC + LPS(5 ug/ml) + test article 1 uM, Mean
[8] = PBMC + LPS(5 ug/ml) + test article 1 uM, single replicates
[9] = PBMC + LPS(5 ug/ml) + test article 10 uM, Mean
[10] = PBMC + LPS(5 ug/ml) + test article 10 uM, single replicates
[11] = PBMC + LPS(5 ug/ml) + test article 100 uM, Mean
[12] = PBMC + LPS(5 ug/ml) + test article 100 uM, single replicates

CC(C)C[C@H](NC(=O)CNC(=O)[C@H](CC(C)C)NC(=O)[C@H](CCC(N)=O)NC(=O)CNC(=O)[C@@H]1C[C@@H](O)CN1)C(=O)N[C@@H](C)C(=O)NCC(=O)N1CCC[C@H]1C(=O)N[C@@H](CCCCN)C(=O)O [YDE-011] (H-[Hyp]GQLGLAGPK-OH)
Concentration [1]: 6481.9 pg/mL
MFI [1]: 1671.0
conc/live cell [1]: 1225.5 pg/10^5
Concentration [2]: 6498.5 pg/mL and 6544.6 pg/mL and 6402.7 pg/mL
MFI [2]: 1675.5 and 1688.0 and 1649.5
conc/live cell [2]: 1444.1 pg/10^5 and 1128.4 pg/10^5 and 1103.9 pg/10^5
Concentration [3]: 6567.3 pg/mL
MFI [3]: 1694.2
conc/live cell [3]: 1128.7 pg/10^5
Concentration [4]: 6557.5 pg/mL and 6476.4 pg/mL and 6668.1 pg/mL
MFI [4]: 1691.5 and 1669.5 and 1721.5
conc/live cell [4]: 1057.7 pg/10^5 and 1269.9 pg/10^5 and 1058.4 pg/10^5
Concentration [5]: 6345.6 pg/mL
MFI [5]: 1634.0
conc/live cell [5]: 1115.2 pg/10^5
Concentration [6]: 6305.1 pg/mL and 6376.9 pg/mL and 6354.8 pg/mL
MFI [6]: 1623.0 and 1642.5 and 1636.5
conc/live cell [6]: 955.3 pg/10^5 and 1275.4 pg/10^5 and 1114.9 pg/10^5
Concentration [7]: 6587.0 pg/mL
MFI [7]: 1699.5
conc/live cell [7]: 1314.4 pg/10^5
Concentration [8]: 6553.8 pg/mL and 6454.2 pg/mL and 6753.1 pg/mL
MFI [8]: 1690.5 and 1663.5 and 1744.5
conc/live cell [8]: 1191.6 pg/10^5 and 1344.6 pg/10^5 and 1406.9 pg/10^5
Concentration [9]: 6933.0 pg/mL
MFI [9]: 1793.2
conc/live cell [9]: 1319.4 pg/10^5
Concentration [10]: 7010.0 pg/mL and 6782.6 pg/mL and 7006.3 pg/mL
MFI [10]: 1814.0 and 1752.5 and 1813.0
conc/live cell [10]: 1298.1 pg/10^5 and 1169.4 pg/10^5 and 1490.7 pg/10^5
Concentration [11]: 8675.0 pg/mL
MFI [11]: 2260.0
conc/live cell [11]: 1430.0 pg/10^5
Concentration [12]: 8497.8 pg/mL and 8918.4 pg/mL and 8608.8 pg/mL
MFI [12]: 2213.0 and 2324.5 and 2242.5
conc/live cell [12]: 1393.1 pg/10^5 and 1462.0 pg/10^5 and 1434.8 pg/10^5
